Columns and labels:
[1] = target: human-recombinant protein kinase N (Homo sapiens, UniProt Q16512); test: Measurement of inhibition activity of protein kinase N (PKN); format: biochemical
Description: The PKN reaction was carried out in 50 µl reaction buffer (20mM Tris HCI pH 7.5, 8mM MgCl2) containing (i) 40µM PKCα peptide ([…]) as a substrate of PKN, (ii) 1 µM GTPγS form GST-RhoA (prepared by the method of Method in ENZYMOLOGY Vol. 256 Small GTPases and Their Regulators Part B Rho Family P.3-10), (iii) 50µM, 20µM, 10µM and 5µM (as the final concentration of the reaction mixture) of ATP and 0.5µl of [γ-^32P] ATP (1.11 TBg/mmol, 74MBg/ml; supplied by NEN™ Life Science Product, Inc.), and (iv) a purified human-recombinant protein kinase N (prepared by using a Baculovirus expression system), in the presence of or in the absence of 1 µM of hexahydro-1-(5-isoquinolinesulfonyl)-1H-1,4-diazepine hydrochloride (Fasudil Hydrochloride). 30µl of the reaction mixture was spotted onto Whatman paper P81 (supplied by Whatman International Ltd.) after the incubation for 10 minutes at 30°C. After the spotting, the spotted Whatman paper was washed with 75mM phosphoric acid 5 times. Then incorporation of ^32P into the PKCα peptide on the washed paper was assessed by scintillation counting. Based on the assessment by scintillation counting, Km value was measured by Lineweaver-Burk plot (method), then K, value was calculated.

ROCK = ROCK (Homo sapiens, UniProt Q13464); test: ROCK inhibition (from Table 1 of Nature vol. 389, p. 991); format: biochemical; conditions: based on the Ki values of Table 1 of Nature vol. 389, p. 991
Excerpt: According to Table 1 of Nature vol. […] 389, p. 991/30 October 1997 based on the Ki values.

[2] = test system: Rat MM-1 Ascites Hepatoma cells bearing V14 Rho A; test: Peritoneal invasion of Rat MM-1 ascites hepatoma cells bearing V14 Rho A (carcinomatous peritonitis model); format: in vivo, male Donryu rats; conditions: after 11 days, 5 rats
Description: MMI ascites hepatoma cells (2x10^7) stably expressing Val 14-RhoA were injected into the peritoneal cavities of male Donryu rats (body weight 100g) (to obtain a model of rat having MM-1 ascites Hepatoma cells bearing V14 Rho A). Fasudil was intravenously delivered at the indicated dose (0, 0.1 mg/Kg, 1 mg/Kg, and 10 mg/Kg) 3 times per day. After 11 days, the animals were sacrificed and (i) tumor nodules and tumor cell dissemination on peritoneum were assessed (This test was conducted by the method which is similar to one described in Nature Medicine Volume 5, Number 2, February 1999, p.223-225 and was conducted with 5 rats at each dose.). In addition, hyperemia of the surface in the peritoneum was also observed.

[3] = 0.1 mg/Kg intravenously 3 times per day
[4] = 1 mg/Kg intravenously 3 times per day
[5] = 10 mg/Kg intravenously 3 times per day

human-recombinant protein kinase N, sequence (Q16512 whole entry): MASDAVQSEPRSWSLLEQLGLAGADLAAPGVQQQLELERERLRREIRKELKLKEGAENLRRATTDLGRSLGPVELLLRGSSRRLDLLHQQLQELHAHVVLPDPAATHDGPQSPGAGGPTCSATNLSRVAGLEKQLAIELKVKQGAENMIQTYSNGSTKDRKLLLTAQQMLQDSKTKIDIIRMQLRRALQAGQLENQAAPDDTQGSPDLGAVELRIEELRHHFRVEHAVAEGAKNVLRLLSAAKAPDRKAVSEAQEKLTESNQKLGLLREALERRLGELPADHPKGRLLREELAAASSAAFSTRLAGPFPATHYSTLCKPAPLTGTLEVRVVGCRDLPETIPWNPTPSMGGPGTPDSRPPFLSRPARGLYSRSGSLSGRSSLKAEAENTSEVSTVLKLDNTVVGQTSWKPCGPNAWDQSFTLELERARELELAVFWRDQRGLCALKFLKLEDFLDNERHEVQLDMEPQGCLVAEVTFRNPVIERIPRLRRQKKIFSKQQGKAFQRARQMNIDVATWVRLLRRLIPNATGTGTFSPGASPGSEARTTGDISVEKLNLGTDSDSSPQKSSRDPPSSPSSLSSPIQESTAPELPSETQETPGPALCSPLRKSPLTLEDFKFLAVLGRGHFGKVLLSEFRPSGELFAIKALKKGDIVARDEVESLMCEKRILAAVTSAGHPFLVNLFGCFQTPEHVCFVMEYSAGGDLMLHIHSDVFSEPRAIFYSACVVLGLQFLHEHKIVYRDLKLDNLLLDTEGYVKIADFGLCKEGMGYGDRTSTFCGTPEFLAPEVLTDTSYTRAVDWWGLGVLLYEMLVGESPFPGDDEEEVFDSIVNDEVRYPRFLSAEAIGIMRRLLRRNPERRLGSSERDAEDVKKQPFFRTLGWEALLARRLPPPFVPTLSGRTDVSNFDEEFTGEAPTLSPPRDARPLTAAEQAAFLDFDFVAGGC
human-recombinant protein kinase N, sequence (P61586 whole entry partner): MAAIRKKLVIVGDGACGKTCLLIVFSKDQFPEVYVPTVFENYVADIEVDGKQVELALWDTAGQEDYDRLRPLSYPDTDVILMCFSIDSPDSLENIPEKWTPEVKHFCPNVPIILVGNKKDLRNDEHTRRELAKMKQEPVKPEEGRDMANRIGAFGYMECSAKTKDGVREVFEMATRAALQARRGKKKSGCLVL
ROCK, sequence (Q13464 whole entry): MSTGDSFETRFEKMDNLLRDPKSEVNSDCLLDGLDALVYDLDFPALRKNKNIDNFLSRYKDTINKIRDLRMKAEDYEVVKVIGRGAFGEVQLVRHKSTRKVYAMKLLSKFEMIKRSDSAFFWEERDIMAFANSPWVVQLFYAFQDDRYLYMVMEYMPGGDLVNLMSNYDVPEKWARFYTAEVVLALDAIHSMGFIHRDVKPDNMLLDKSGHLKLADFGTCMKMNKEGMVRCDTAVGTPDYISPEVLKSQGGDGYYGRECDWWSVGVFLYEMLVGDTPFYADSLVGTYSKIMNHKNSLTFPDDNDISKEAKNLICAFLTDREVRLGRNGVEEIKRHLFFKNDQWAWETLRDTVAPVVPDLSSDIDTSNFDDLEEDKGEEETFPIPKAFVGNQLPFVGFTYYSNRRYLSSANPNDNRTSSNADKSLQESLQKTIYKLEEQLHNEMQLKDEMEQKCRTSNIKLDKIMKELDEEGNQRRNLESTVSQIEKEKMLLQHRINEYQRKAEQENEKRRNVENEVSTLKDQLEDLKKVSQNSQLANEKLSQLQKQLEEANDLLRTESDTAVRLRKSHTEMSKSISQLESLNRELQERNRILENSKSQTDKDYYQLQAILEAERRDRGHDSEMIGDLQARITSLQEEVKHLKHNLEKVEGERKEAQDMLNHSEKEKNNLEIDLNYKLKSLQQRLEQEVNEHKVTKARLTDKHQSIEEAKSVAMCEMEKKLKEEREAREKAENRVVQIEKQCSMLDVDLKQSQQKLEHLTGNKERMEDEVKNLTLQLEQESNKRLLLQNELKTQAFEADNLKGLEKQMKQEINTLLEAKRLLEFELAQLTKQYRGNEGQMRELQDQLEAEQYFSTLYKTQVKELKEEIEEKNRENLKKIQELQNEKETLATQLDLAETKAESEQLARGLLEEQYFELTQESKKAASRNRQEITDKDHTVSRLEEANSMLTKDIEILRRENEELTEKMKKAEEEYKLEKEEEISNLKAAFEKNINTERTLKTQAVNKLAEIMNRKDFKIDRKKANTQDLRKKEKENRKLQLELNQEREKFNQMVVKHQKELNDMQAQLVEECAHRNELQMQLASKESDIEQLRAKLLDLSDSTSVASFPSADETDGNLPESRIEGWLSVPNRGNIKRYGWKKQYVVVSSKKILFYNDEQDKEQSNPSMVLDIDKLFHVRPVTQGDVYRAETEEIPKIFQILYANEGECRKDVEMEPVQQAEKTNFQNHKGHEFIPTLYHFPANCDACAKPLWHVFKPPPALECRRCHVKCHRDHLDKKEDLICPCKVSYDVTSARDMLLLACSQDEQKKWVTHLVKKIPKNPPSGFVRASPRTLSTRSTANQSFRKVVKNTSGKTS

**Q.** Which results are given for Cl.O=S(=O)(c1cccc2cnccc12)N1CCCNCC1 [Fasudil Hydrochloride, hexahydro-1-(5-isoquinolinesulfonyl)-1H-1,4-diazepine hydrochloride]?
**A.** Ki ([1]; 1 µM Fasudil Hydrochloride, ATP 50, 20, 10 and 5 µM, Lineweaver-Burk plot, 10 minutes at 30°C): 922 nM; PKN inhibitory activity relative to the inhibitory activity of protein kinase C ([1]; based on the Ki values, protein kinase C Ki from Table 1 of Nature vol. 389, p. 991): ten times higher; ROCK inhibitory activity relative to the inhibitory activity of protein kinase C (ROCK): 28 times; Hyperemia of the surface in the peritoneum [2, 3]: + (25-50% of surface in the peritoneum shows hyperemia); Total number of tumor nodules on peritoneum [2, 3]: 22; Hyperemia of the surface in the peritoneum [2, 4]: ± (less than 25% of surface in the peritoneum shows hyperemia); Total number of tumor nodules on peritoneum [2, 4]: 11; Hyperemia of the surface in the peritoneum [2, 5]: ± (less than 25% of surface in the peritoneum shows hyperemia); Total number of tumor nodules on peritoneum [2, 5]: 0
